Test results from patent US12234240B2, “Substituted imidazo[5,1-d][1,2,3,5]tetrazines for the treatment of cancer” (The Board of Trustees of the University of Illinois, priority 2018, dated 2025).
Where two headings read alike, the source gives them in different places.

Columns and labels:
[1] = Stability in the absence of microsomes (microsomes replaced with PBS); type: physicochemical; conditions: liver microsomes replaced with PBS, percentage remaining relative to t0
Experimental: (§1) Liver microsome stability.
(§2) Mouse Liver Microsome Stability Assay. A mixture of PBS (pH 7.4), NADPH regenerating system solution A (Corning Life Sciences), and NADPH regenerating system solution B (Corning Life Sciences) was incubated at 37° C. in a shaking incubator for 5 min. Next, compound was added in DMSO (final concentration 50 μM, 0.5% DMSO) before ice-cold mouse liver microsomes (Thermo Fisher, male CD-1 mice, pooled) were added (final protein concentration of 1 mg/mL). An aliquot was immediately removed, quenched with an equal volume of 100 μM internal standard and 0.5% hydrochloric acid in ice-cold acetonitrile, and centrifuged at 13,000 rcf for 3 min. The supernatant was diluted 1:5 in ddH2O and analyzed by LC-MS. The reactions were incubated at 37° C. in a shaking incubator for 2 h. A second aliquot was removed, quenched and diluted as before and analyzed by LC-MS. The ratio of the areas of analyte:internal standard at 2 hours was compared to the ratio at t0 to determine the percentage of compound remaining. Analysis was performed on an Agilent 6230 LC/MS TOF system with a 1.8 μm, 2.1×50 mm Agilent ZORBAX Eclipse Plus C18 column.

U87 cells = assay: Cell viability, Alamar Blue, 7-day incubation, U87; type: cell-based; conditions: Homo sapiens, U-87 MG, 168 h, MGMT −, error SEM
Experimental: (§3) Anticancer activity of C8 substituted imidazotetrazines. With a suite of imidazotetrazines in hand, each compound was evaluated against a panel of human GBM cell lines (Table 1a, Table 1b).

D54 cells = assay: Cell viability, Alamar Blue, 7-day incubation, D54; type: cell-based; conditions: Homo sapiens, D54, 168 h, MGMT −, error SEM
Experimental: as §3

[2] = Mouse liver microsome stability assay; type: in vitro ADME; conditions: for Stability (2 h, Microsomes): percentage remaining relative to t0, error SEM, n ≥ 2; for metabolic stability in words: mouse liver microsomes, 2 hours
Experimental: as §1, §2

T98G cells [3] = assay: Cell viability, Alamar Blue, 7-day incubation, T98G; type: cell-based; conditions: Homo sapiens, 168 h, MGMT +, error SEM
Experimental: as §3

[4] = tested on: Br23c GBM oncosphere cell line; assay: Cell viability, Alamar Blue, 7-day, Br23c GBM oncosphere line; type: cell-based; conditions: Homo sapiens, 168 h, error SEM, read-out: 7-day IC50 MGMT − Br23C
[5] = tested on: GBM Br23c oncospheres intracranially implanted; assay: Intracranial mouse model of GBM (Br23c oncospheres); type: in vivo; conditions: for increase in median survival over TMZ: equimolar to 15 mg/kg TMZ, oral gavage once-per-day, 5×/week, 7 weeks
Excerpt: FIG. 5. Evaluation of imidazotetrazines in intracranial mouse models of GBM. GBM Br23c oncospheres were intracranially implanted into female athymic nude mice. Treatment was started 5 days post implantation. […] Compounds were formulated in 10% PEG in PBS immediately prior to each treatment. Number of mice per treatment cohort≥5. Survival curves were compared using log-rank test.
in vivo Efficacy Models. Human GBM Br23c stem-like neurosphere cells were intracranially implanted in female athymic nude mice (150,000 cells/mouse). […] Mice were observed daily for any signs of deterioration, neurotoxicity, or movement disorders. They were inspected for signs of pain and distress, as in accordance with the Johns Hopkins Animal Care and Use Guidelines.

T98G cells [6] = assay: cells; type: cell-based; conditions: for IC50: Homo sapiens, 7-day incubation; for Fold Change: between IC50 (+/−) O6BG
Experimental: FIG. 4. Imidazotetrazines were added to T98G cells with or without 3 h pre-treatment of O6BG (100 μM). IC50 values after 7-day incubation and fold changes between (+/−) O6BG treatments are reported. […] Error is SEM, n≥3. Statistical significance was determined by using a two-sample Student's t-test (two-tailed test, assuming equal variance).

[7] = Assessment of hematological toxicity in vivo
Experimental: Assessment of hematological toxicity. […] Both lymphocyte (FIG. 3b) and neutrophil (FIG. 8a) concentrations were decreased in TMZ-treated mice. […] Total WBC, lymphocyte, and neutrophil counts for mice treated with these compounds were equivalent to those of control mice.
Assessment of Hematological Toxicity. Male CD-1 IGS mice (n=4 mice/group) were administered a single dose of 125 mg/kg compound intravenously. Imidazotetrazines were formulated with SBEβCD in sterile water immediately prior to injection. Seven days post-treatment, mice were humanely sacrificed and whole blood was collected for assessment of total white blood cells, lymphocytes, neutrophils, platelets, and red blood cells.

[8] = Hydrolytic stability in buffered saline (HPLC assay); conditions: saline at pH 7.0, 7.4, and 8.0, 2 h at 37° C.
Experimental: Hydrolytic stability of C8 substituted imidazotetrazines. […] A HPLC assay was developed to quantify the fraction of intact prodrug remaining in solution after 2 hours at pH 7.4, 37° C.

[9] = Table 1a, 7 days, n ≥ 3, read-out: IC50 U87
[10] = Table 1a, 7 days, read-out: IC50 D54
[11] = Table 1a, 7 days, read-out: IC50 T98G
[12] = Table 1b, read-out: 7-day IC50 U87
[13] = Table 1b, read-out: 7-day IC50 T98G
[14] = 3 h pre-treatment with O6BG (100 μM)
[15] = Table 1b, read-out: 7-day IC50 D54

SMILES | IC50 (U87 cells; [9]) | IC50 (D54 cells; [10]) | metabolic stability in words [2] | IC50 (T98G cells [3]; [11]) | further results
CCCCN(CCCC)C(=O)c1ncn2c(=O)n(C)nnc12 [Compound 7, N,N-dibutyl-3-methyl-4-oxo-3,4-dihydroimidazo[5,1-d][1,2,3,5]tetrazine-8-carboxamide] | 27 ± 6 µM | 11 ± 2 µM | markedly less stability in liver microsomes | 140 ± 20 µM | Stability (2 h, No Microsomes) [1]: 98 ± 3%; Stability (2 h, Microsomes) [2]: 1 ± 1%
Cn1nnc2c(-c3ccccc3)ncn2c1=O [Compound 23, 3-methyl-8-phenylimidazo[5,1-d][1,2,3,5]tetrazin-4(3H)-one] | 9 ± 1 µM | 7 ± 1 µM | – | 14 ± 1 µM | Stability (2 h, No Microsomes) [1]: 103 ± 5%; Stability (2 h, Microsomes) [2]: 44 ± 2%
CNC(=O)c1ncn2c(=O)n(C)nnc12 [Compound 4, N,3-dimethyl-4-oxo-3,4-dihydroimidazo[5,1-d][1,2,3,5]tetrazine-8-carboxamide] | 49 ± 7 µM | 11 ± 1 µM | some susceptibility to the effects of the microsomes | 580 ± 20 µM | IC50 [4]: 6 ± 1 µM; increase in median survival over TMZ [5]: 24%
Cn1nnc2c(-c3ccc(F)cc3)ncn2c1=O [Compound 24, 8-(4-fluorophenyl)-3-methylimidazo[5,1-d][1,2,3,5]tetrazin-4(3H)-one] | – | – | – | – | IC50 (U87 cells; [12]): 13 ± 2 µM; IC50 (T98G cells [3]; [13]): 18 ± 2 µM
CC(=O)c1ncn2c(=O)n(C)nnc12 [Compound 17, 8-acetyl-3-methylimidazo[5,1-d][1,2,3,5]tetrazin-4(3H)-one] | – | 18 ± 1 µM | generally stable to oxidative metabolism | – | IC50 [4]: 5.2 ± 0.3 µM; IC50 (T98G cells [6]; [14]): 32 ± 4 µM; IC50 (T98G cells [6]; 168 h, without O6BG): 240 ± 20 µM; Fold Change (T98G cells [6]): 8; Cohort weight 7 days Post ([7]; mice, 7 days after single IV dose of 125 mg/kg, error SEM, 4 mice): 31 ± 1 g; Cohort weight Pre-treatment ([7]; mice, prior to single IV dose of 125 mg/kg, error SEM, 4 mice): 30 ± 1 g; myelosuppression / white blood cell effect ([7]; mice, single IV dose 125 mg/kg, complete blood count after 7 days): did not produce myelosuppression; extension of median survival past TMZ-treated mice ([5]; 14.9 mg/kg oral once-per-day for 5 total doses): more than 50 days; pH dependence of hydrolysis [8]: pH-dependent
Cc1cnc(-c2ncn3c(=O)n(C)nnc23)o1 [Compound 27, 3-methyl-8-(5-methyloxazol-2-yl)imidazo[5,1-d][1,2,3,5]tetrazin-4(3H)-one] | 27 ± 4 µM | 9 ± 1 µM | – | 100 ± 20 µM | IC50 (T98G cells [6]; [14]): 5 ± 1 µM; IC50 (T98G cells [6]; 168 h, without O6BG): 100 ± 20 µM; Fold Change (T98G cells [6]): 20; Cohort weight 7 days Post ([7]; mouse, in vivo, iv, 125 mg/kg): 31.6 ± 0.3 g; myelosuppression / white blood cell effect ([7]; mouse, in vivo, iv, 125 mg/kg): did not produce myelosuppression
Cn1nnc2c(Br)ncn2c1=O [Compound 18, 8-bromo-3-methylimidazo[5,1-d][1,2,3,5]tetrazin-4(3H)-one] | – | – | – | – | IC50 (U87 cells; [12]): 26 ± 7 µM; IC50 (D54 cells; [15]): 20 ± 1 µM; IC50 (T98G cells [3]; [13]): 60 ± 10 µM
Cn1nnc2c(C(N)=S)ncn2c1=O [Compound 28, 3-methyl-4-oxo-3,4-dihydroimidazo[5,1-d][1,2,3,5]tetrazine-8-carbothioamide] | 9 ± 1 µM | 8 ± 1 µM | – | 31 ± 4 µM | –
CCN(CC)C(=O)c1ncn2c(=O)n(C)nnc12 [Compound 6, N,N-diethyl-3-methyl-4-oxo-3,4-dihydroimidazo[5,1-d][1,2,3,5]tetrazine-8-carboxamide] | 80 ± 30 µM | 13 ± 2 µM | – | 160 ± 40 µM | Stability (2 h, No Microsomes) [1]: 95 ± 2%; Stability (2 h, Microsomes) [2]: 81 ± 1%
Cn1nnc2c(C(=O)O)ncn2c1=O [Compound 3] | 320 ± 7 µM | 130 ± 8 µM | – | 321 ± 8 µM | –
Cn1nnc2c(-c3ccc(Cl)cc3)ncn2c1=O [Compound 26, 8-(4-chlorophenyl)-3-methylimidazo[5,1-d][1,2,3,5]tetrazin-4(3H)-one] | – | – | – | – | IC50 (U87 cells; [12]): 9 ± 1 µM; IC50 (D54 cells; [15]): 7 ± 1 µM; IC50 (T98G cells [3]; [13]): 19 ± 3 µM
Cn1nnc2c(C(=O)N3CCCC3)ncn2c1=O [Compound 8, 3-methyl-8-(pyrrolidine-1-carbonyl)imidazo[5,1-d][1,2,3,5]tetrazin-4(3H)-one] | 17 ± 3 µM | 12 ± 4 µM | – | 186 ± 5 µM | –
Cn1nnc2c(Cl)ncn2c1=O [Compound 19, 8-chloro-3-methylimidazo[5,1-d][1,2,3,5]tetrazin-4(3H)-one] | 15 ± 4 µM | 21 ± 4 µM | generally stable to oxidative metabolism | 60 ± 10 µM | Stability (2 h, No Microsomes) [1]: 91 ± 1%; Stability (2 h, Microsomes) [2]: 91 ± 3%
CN(C)C(=O)c1ncn2c(=O)n(C)nnc12 [Compound 5, N,N,3-trimethyl-4-oxo-3,4-dihydroimidazo[5,1-d][1,2,3,5]tetrazine-8-carboxamide] | 40 ± 20 µM | 12 ± 5 µM | some susceptibility to the effects of the microsomes | 250 ± 60 µM | IC50 [4]: 6 ± 1 µM; IC50 (T98G cells [6]; [14]): 25 ± 9 µM; IC50 (T98G cells [6]; 168 h, without O6BG): 250 ± 60 µM; Fold Change (T98G cells [6]): 10; increase in median survival over TMZ [5]: 46%
CCSC(=O)c1ncn2c(=O)n(C)nnc12 [Compound 10, S-ethyl 3-methyl-4-oxo-3,4-dihydroimidazo[5,1-d][1,2,3,5]tetrazine-8-carbothioate] | 64 ± 21 µM | 8 ± 1 µM | – | 327 ± 4 µM | –
Cn1nnc2c(-c3ccc(C(F)(F)F)cc3)ncn2c1=O [Compound 25, 3-methyl-8-(4-(trifluoromethyl)phenyl)imidazo[5,1-d][1,2,3,5]tetrazin-4(3H)-one] | – | – | – | – | IC50 (U87 cells; [12]): 16 ± 1 µM; IC50 (T98G cells [3]; [13]): > 100 µM
